Measurements published in patent US20030113704A1, “Methods for inactivation of pathogens in biological materials” (priority 2000, published 2003).

Key:
Bluetongue type 11 Virus = test: Viral inactivation in leukoreduced PRBC with Erythrosol (Example 5), Bluetongue type 11; format: cell-based; conditions: red cells, 0.2 mM inactivation compound, 2 mM glutathione, two hours at RT
Cell-Associated HIV = test: Viral inactivation in leukoreduced PRBC with Erythrosol (Example 5), cell-associated HIV; format: cell-based, Human Immunodeficiency Virus; conditions: red cells, 0.2 mM inactivation compound, 3 mM glutathione, two hours at RT
Escherichia coli K12 = test: Bacterial inactivation in leukoreduced PRBC with Erythrosol (Example 5), E. coli K12; format: cell-based; conditions: red cells, 0.2 mM compound, 2 mM glutathione, two hours at RT
Yersinia enterocolitica = test: Bacterial inactivation in leukoreduced PRBC with Erythrosol (Example 5), Y. enterocolitica; format: cell-based; conditions: red cells, 0.2 mM compound, 2 mM glutathione, two hours at RT
Serratia liquifaciens = test: Bacterial inactivation in leukoreduced PRBC with Erythrosol (Example 5), S. liquifaciens; format: cell-based; conditions: red cells, 0.2 mM compound, 2 mM glutathione, two hours at RT
Cell-Free HIV = test: Viral inactivation in leukoreduced PRBC with Erythrosol (Example 5), cell-free HIV; format: cell-based, Human Immunodeficiency Virus; conditions: red cells, 0.2 mM inactivation compound, 3 mM glutathione, two hours at RT
Staphylococcus aureus = test: Bacterial inactivation in leukoreduced PRBC with Erythrosol (Example 5), S. aureus; format: cell-based; conditions: red cells, 0.2 mM compound, 2 mM glutathione, two hours at RT
Listeria monocytogenes = test: Bacterial inactivation in leukoreduced PRBC with Erythrosol (Example 5), L. monocytogenes; format: cell-based; conditions: red cells, 0.2 mM compound, 2 mM glutathione, two hours at RT
Bacilus subtilis = test: Bacterial inactivation in leukoreduced PRBC with Erythrosol (Example 5), B. subtilis; format: cell-based; conditions: red cells, 0.2 mM compound, 2 mM glutathione, two hours at RT
Salmonella choleraesuis = test: Bacterial inactivation in leukoreduced PRBC with Erythrosol (Example 5), S. choleraesuis; format: cell-based; conditions: red cells, 0.2 mM compound, 2 mM glutathione, two hours at RT
Pseudomonas aeruginosa = test: Bacterial inactivation in leukoreduced PRBC with Erythrosol (Example 5), P. aeruginosa; format: cell-based; conditions: red cells, 0.2 mM compound, 2 mM glutathione, two hours at RT
[1] = test system: Duck Hepatitis B Virus (DHBV); test: Viral inactivation in leukoreduced PRBC with Erythrosol (Example 5), DHBV; format: cell-based; conditions: red cells, 0.1 mM inactivation compound, 3 mM glutathione, two hours at RT
[2] = test system: Bovine Viral Diarrhea Virus (BVDV); test: Viral inactivation in leukoreduced PRBC with Erythrosol (Example 5), BVDV; format: cell-based; conditions: red cells, 0.1 mM inactivation compound, 1 mM glutathione, two hours at RT
[3] = test system: Respiratory Synctial Virus (RSV); test: Viral inactivation in leukoreduced PRBC with Erythrosol (Example 5), RSV; format: cell-based; conditions: red cells, 0.2 mM inactivation compound, 2 mM glutathione, two hours at RT
[4] = test system: Vesicular Stomatitis Virus type Indiana (VSIV); format: cell-based
[5] = test system: Herpes Simplex Virus (HSV); test: Viral inactivation in leukoreduced PRBC with Erythrosol (Example 5), HSV; format: cell-based; conditions: red cells, 0.003 mM inactivation compound, 3 mM glutathione, two hours at RT
[6] = test system: Staphylococcus epidermidis; test: Bacterial inactivation in leukoreduced PRBC with Erythrosol (Example 5), S. epidermidis; format: cell-based; conditions: red cells, 0.2 mM compound, 2 mM glutathione, two hours at RT
Deinococcus radiodurans = test: Bacterial inactivation in leukoreduced PRBC with Erythrosol (Example 5), D. radiodurans; format: cell-based; conditions: red cells, 0.2 mM compound, 2 mM glutathione, two hours at RT
Serratia marcescens = test: Bacterial inactivation in leukoreduced PRBC with Erythrosol (Example 5), S. marcescens; format: cell-based; conditions: red cells, 0.2 mM compound, 2 mM glutathione, two hours at RT

## O=C(CCNc1c2ccccc2nc2ccccc12)OCCN(CCCl)CCCl [β-alanine, N-(acridin-9-yl), 2-[bis(2-chloroethyl)amino]ethyl ester]
Bluetongue type 11 Virus
  Log inactivation Bluetongue type 11: 6.0 log
Cell-Associated HIV
  Log inactivation Cell-Associated HIV: >6.2 log
Escherichia coli K12
  Log inactivation Eseherichia coli K12: 7.4 log
Yersinia enterocolitica
  Log inactivation Yersinia enterocolitica: 7.4 log
Serratia liquifaciens
  Log inactivation Serratia liquifaciens: 3.8 log
Cell-Free HIV
  Log inactivation Cell-Free HIV: >6.5 log
Staphylococcus aureus
  Log inactivation Staphylococcus aureus: >5.1 log
Listeria monocytogenes
  Log inactivation Listeria monocytogenes: >7.1 log
Bacilus subtilis
  Log inactivation Bacilus subtilis: >6.3 log
Salmonella choleraesuis
  Log inactivation Salmonella choleraesuis: 4.8 log
Pseudomonas aeruginosa
  Log inactivation Pseudomonas aeruginosa: 4.5 log
[1]
  Log inactivation DHBV: >6.3 log
[2]
  Log inactivation BVDV: >7.3 log
[3]
  Log inactivation RSV: 5.6 log
[4]
  Log inactivation VSIV: 5.7 log
[5]
  Log inactivation HSV: >6.0 log
[6]
  Log inactivation Staphylococcus epidermidis: >6.9 log
Deinococcus radiodurans
  Log inactivation Deinococcus radiodurans: >6.0 log
Serratia marcescens
  Log inactivation Serratia marcescens: 4.1 log
